Experimental data reported in US9272035B2, “Methods and compositions using PDE4 inhibitors for the treatment and management of autoimmune and inflammatory diseases” (Celgene Corporation, priority 2011, dated 2016).
Several values for one entry are separate records, joined by “and”; a condition that tells them apart may be missing. Identical values can stand only once. Entries after “also recorded” stand apart in the source; their conditions may differ. Like-named read-outs stand apart in the source and are kept apart here. Values belong to the compound of their own block, whether it stands above or below them.

Legend:
[1] = test system: mAB/LPS-induced experimental arthritis; assay: mAB/LPS-induced experimental murine arthritogenic model, paw thickness (five treatment days); assay type: in vivo, BALB/c male mice
Procedure: The mice were administered with 1, 5 and 25 mg/kg once daily oral (PO) gavage throughout five successive treatment days.

[2] = test system: mAB/LPS-induced experimental arthritis; assay: Histopathological evaluation of the tibiotarsal joint of arthritic mice; assay type: in vivo; set-up: key to Fibrin deposition / Inflammatory infiltration in the synovial membrane / Pannus formation (reflected by proliferation of granulation tissue) / Cartilage disruption / Hyaline cartilage destruction (reflected by resorption/erosion in the cartilage) / Subchondral bone destruction (reflected by resorption/erosion by osteoclasts and loss of bone) / Overall assessment: “determined as arthritis” / Synovial hyperplasia / Synovial villus formation: 0=unremarkable; 1=minimal; 2=mild; 3=moderate; 4=marked; details: 25 mg/kg
Procedure: Compound A), total 16 animals were tested with Vehicle Control or 25 mg/kg of (+) isomer for histopathological evaluation. […] Each limb from the middle of the tibia and distally, to include the ankle joint, i.e., the joint between the leg and foot (tibial-tarsus joint), was trimmed mid-longitudinally, and both halves were embedded in paraffin and slides of 6 micron thickness were cut and stained by hematoxylin and eosin. Histopathological changes in the joints were described and scored, using semiquantitative grading of five grades (0-4), taking into consideration the severity of the changes (0=unremarkable, 1=minimal, 2=mild, 3=moderate, 4=marked). […] All typical ranges of changes characteristically seen in this arthritis were noted.

[3] = test system: Human peripheral blood total T cells stimulated with anti-CD3 antibody; assay: Cytokine and chemokine production by anti-CD3-stimulated T cells (cytometric bead array, Luminex 100); assay type: cell-based
Procedure: (§1) Cytokine and chemokine protein levels were analyzed by cytometric bead array on a Luminex 100. CAIA model: […] Compound A and ETN were administered once daily on days 3-13. […] Both hind paws (left and right) of each animal were examined for signs of arthritogenic responses in blinded fashion. Arthritic reactions were scored and recorded according to a 0-4 scale in ascending order of severity. Hind paw thickness was measured in mm using a Mitutoyo Electronic Digital Caliper.

[4] = test system: collagen antibody-induced arthritis; assay: Mouse model of collagen antibody-induced arthritis (CAIA); assay type: in vivo, Male BALB/c mice
Procedure: as §1

[5] = Pharmacokinetic data for study drugs; set-up: species or system RA patients; details: human, in vivo; for concentration at 7 day: read-out: Cmin
[6] = test system: normal primary human chondrocytes stimulated with IL-1, IL-6 and IL-6R; assay: IL-7 gene expression assay in chondrocytes; assay type: cell-based
Procedure: (§2) IL-7 Gene Expression Assay: […] Normal primary human chondrocytes and rheumatoid arthritis synovial fibroblasts purchased from Asterand (Detroit, Mich.) were thawed into a T-75 flask and cultured for 2-3 weeks to reach confluency. The media was 20% premium non-heat inactivated FBS-DMEM/F-12 (Invitrogen 11330-032)+1% pen/strep and 1% L-Glutamine. […] Upon reaching 90% confluency (usually in 1-2 days post-plating), the cells were serum starved for 20 hours by replacing the complete media with 2 ml serum-free media. The cells were treated with the test compounds for 1 hour at 37° C. […] The cells were then washed with cold PBS. Ribonucleic acid (RNA) was isolated by adding 600 μl RLT lysis buffer (Qiagen RNAEasy kit cat#74104), passing the cells through the Qiashredder (Qiagen cat#23800) followed by RNA isolation according to manufacturers' instructions (Qiagen RNAEasy kit). Purified RNA was reverse transcribed into cDNA with thermal cycler for real-time reverse transcriptase polymerase chain reaction (RTPCR) analysis. Interleukin-7 gene expression assays were carried out using the 7500 Real Time PCR system. A GAPDH gene expression assay control was run for each sample and was used as a normalization control.

[7] = test system: rheumatoid arthritis synovial fibroblasts stimulated with IL-1, IL-6 and IL-6R; assay: IL-7 gene expression assay in synovial fibroblasts; assay type: cell-based, human
Procedure: as §2

[8] = test system: stimulated primary human normal chondrocytes; assay: Cell surface protein expression assay (flow cytometry); assay type: cell-based
Procedure: Cell Surface Protein Expression Assay: Normal primary human chondrocyte were thawed into a T-75 flask and grown for 2-3 weeks to reach confluency in 20% premium non-heat inactivated FBS-DMEM/F-12 (Invitrogen 11330-032)+1% pen/strep and 1% L-Glutamine. The cells were plated (1.0×10^6 cells/10 ml of complete media) in a 100×20 mm tissue culture plate. The next day, the media was replaced with 10 ml serum-free media for 20 min to serum starve the cells. Compound A (0.1-10 μM) was added for 1 hour at 37° C. (0.25% final DMSO). In addition, cytokines IL-1β (10 ng/ml), IL-6 (10 ng/ml), and IL-6R (20 ng/ml) were added and the cells continued incubation overnight (18 hours) at 37° C. The cells were harvested by a non-enzymatic cell dissociation solution (Millipore S-004-B) then washed once in cold stain buffer (BD Pharmigen 554656) at 300×g for 5 minutes. The cells were resuspended and aliquoted into three 5 ml round bottom tubes plus two additional aliquots for control. The cells were washed again in cold stain buffer at 300×g for 5 minutes. The cells were stained with PE mouse anti-human: CD54 (ICAM-1) (BD Pharmigen 555511) and Integrin αVβ3 anti (Millipore MAB1976H). The samples were vortexed and incubated for 30 minutes at 4° C. while being protected from light. […] After a final wash, 500 μl of stain buffer was added to each sample and analyzed by flow cytometry.

Human bone marrow cells = assay: Osteoclastogenesis induced by dexamethasone and Vitamin D; assay type: cell-based; details: 10 nM dexamethasone and 10 nM Vitamin D; day 7
Procedure: Human bone marrow cells were treated with Compound A and with 10 nM dexamethasone and 10 nM Vitamin D to differentiate cells into osteoclasts. Fresh media and Compound A were added every 3 days. At day 7 supernatant was collected and adherent cells were isolated to obtain RNA. Day 7 cells were stained with TRAPS and the number of osteoclasts was counted.

[9] = test system: Normal human osteoblast cells (nHOST); assay: Osteoblast production of RANKL and OPG (ELISA); assay type: cell-based; details: 7 days with 10 nM dexamethasone and 10 nM Vitamin D
Procedure: Normal human osteoblast cells (nHOST, source: Lonza) were plated in 6 well plates and incubated overnight for cell attachment. Cells were treated for 7 days with Compound A and with 10 nM dexamethasone and 10 nM Vitamin D. Compound and media was refreshed every 3-4 days. On Day 7 supernatent was collected for RANKL and OPG by ELISA.

[10] = test system: mAB/LPS-induced experimental arthritis; assay: Antibody-induced arthritis in mice (mAb/LPS model, 11 treatment days)
[11] = cited from earlier work
[12] = tibiotarsal joint, grade 0-4, individual animals No. 25-32

- IC50s, production of all T cell cytokines and chemokines measured (IL-2, IL-4, IL-13, IFN-γ, TNF-α, CXCL10, CCL3, and CCL4) ([3]; anti-CD3 antibody, 2 days, range over all analytes): 0.015 to 0.36 µg/mL
- Cmax ([5]; 20-mg, day-7): 419 ng/mL
- concentration at 7 day ([5]; 20-mg, day-7): 4.9 ng/mL
Compound: CCOc1cc([C@@H](CS(C)(=O)=O)N2C(=O)c3cccc(NC(C)=O)c3C2=O)ccc1OC [Compound A, (S)-N-(2-(1-(3-ethoxy-4-methoxyphenyl)-2-(methylsulfonyl)ethyl)-1,3-dioxoisoindolin-4-yl)acetamide]
- hind paw thickness (suppression of paw swelling) ([1]; 5 mg/kg PO once daily, limited to Day 9, vs. Vehicle Control): A lesser extent (p<0.05 vs. Vehicle Control)
- hind paw thickness (suppression of paw swelling) ([1]; 25 mg/kg PO once daily, vs. Vehicle Control): highly statistically significant (p<0.01 vs. Vehicle Control) and constant suppression of paw swelling; also recorded: statistically significant reduction of paw swelling
- arthritis by histopathological evaluation ([2]; all samples from treated animals): practically no existing arthritis
- Cartilage disruption [2, 12]: 0
- Fibrin deposition [2, 12]: 0 (6×) and 1 (2×)
- Hyaline cartilage destruction (reflected by resorption/erosion in the cartilage) [2, 12]: 0
- Inflammatory infiltration in the synovial membrane [2, 12]: 0
- Overall assessment: “determined as arthritis” [2, 12]: 0
- Pannus formation (reflected by proliferation of granulation tissue) [2, 12]: 0
- Subchondral bone destruction (reflected by resorption/erosion by osteoclasts and loss of bone) [2, 12]: 0
- Synovial hyperplasia [2, 12]: 0
- Synovial villus formation [2, 12]: 0
- inhibition of IL-2, IL-4, IL-13, IFN-γ, TNF-α, CXCL10, CCL3, and CCL4 ([3]; human T cells): resulted in inhibition
- arthritis by histopathological analysis ([4]; 25 mg/kg): practically no existing arthritis
- hind-paw arthritic reaction scores and thickness ([4]; 5 and 25 mg/kg orally once daily on days 3-13): significantly reduced (p<0.01)
- synovial hyperplasia, synovial villus formation, fibrin deposition, inflammatory infiltration in the synovial membrane, pannus formation, cartilage disruption, and subchondral bone destruction ([4]; high dose): inhibited
- IL-7 gene expression ([6]; 0.1-10 μM, normal primary human chondrocytes): significantly inhibited
- inhibition of IL-7 gene expression compared with methotrexate and etanercept ([6]; dose ranges encompassing the respective Cmax of MTX and ETC): more effective inhibitor of IL-7 gene expression than methotrexate and etanercept
- IL-7 gene expression ([7]; 0.1-10 μM): significantly inhibited
- alpha-v-beta-3 (αvβ3) integrin expression [8]: inhibited expression
- intercellular adhesion molecule 1 (ICAM-1) expression [8]: inhibited expression
- osteoclast formation (osteoclastogenesis) (Human bone marrow cells): inhibit osteoclast formation; also recorded: significantly inhibits osteoclastogenesis
- sRANKL ([9]; 1 μM and 10 μM): significant decrease
- OPG [9]: increase
- RANKL/OPG ratio [9]: significantly inhibit
- mean group arthritogenic scoring value of both hind paws ([10]; 25 mg/kg, vs. Vehicle Control on Days 9, 11 and 14, respectively): statistically to extremely significant reductions (p<0.05, p<0.01, p<0.001)
- treatment-related adverse reactions ([10]; 5 and 25 mg/kg PO once daily, 11 days, 14-day observation period): No obvious treatment-related adverse reactions
- mean group percentage change in hind paw thickness vs. arthritis induction initiation (Day 0) ([10]; 5 or 25 mg/kg, vs. Vehicle Control, Days 7, 9, 11 & 14): highly significantly lower (P<0.01)

- Cmax ([5]; 200-mg day-7): 195 ng/mL
- concentration at 7 day ([5]; 200-mg day-7): 40 ng/mL
Compound: CCOc1cc([C@@H](CS(C)(=O)=O)N2Cc3cccc(NC(=O)C4CC4)c3C2=O)ccc1OC [Compound B, (S)-N-(2-(1-(3-ethoxy-4-methoxyphenyl)-2-(methylsulfonyl)ethyl)-3-oxoisoindolin-4-yl)cyclopropanecarboxamide]

Compound: CN(Cc1cnc2nc(N)nc(N)c2n1)c1ccc(C(=O)N[C@@H](CCC(=O)O)C(=O)O)cc1 [MTX, methotrexate]
- IL-7 gene expression ([7]; comparators): no significant effects
- Cmax ([11]; Depending on RA patients): 300 to 1040 ng/mL
- maximum plasma concentration (Cmax) [11]: 400 ng/mL

Compound: etanercept
- IC50, IL-13 and IP-10 ([3]; anti-CD3 antibody, 2 days): 0.016 to 0.062 µg/mL
- IC50, TNF-α ([3]; anti-CD3 antibody, 2 days): 0.0015 µg/mL
- IL-7 gene expression ([7]; comparators): no significant effects
- Cmax (ng/ml) ([11]; RA patient 6 months 25-mg biweekly): 3000 (1700 to 5600) ng/ml
- Cmax (ng/ml) ([11]; RA patients 50-mg weekly): weekly: 2400 ± 1500 ng/ml
- Cmin ([11]; RA patients): 1200 ± 700 ng/mL
- maximum plasma concentration (Cmax) [11]: 1600 ng/mL
- Bioavailability ([11]; in vivo): 76%
- mean group arthritogenic scoring value of both hind paws ([10]; 6.25 mg/kg, p<0.001 vs. Vehicle Control, study days 7, 9, 11 and 14): highly to extremely statistically lower (p<0.01 & p<0.001, respectively)
